# Measured values taken from patent US20220380342A1, “BIPHENYL DERIVATIVES FOR BLOCKING PD-1/PD-L1 INTERACTION, PREPARATION METHOD THEREFOR AND USE THEREOF” (Abbisko Therapeutics Co., Ltd., priority 2019, published 2022).
# pEC50, pIC50: −log10 of the molar value.
# Columns and labels:
# [1] = target: T1, interaction between PD-1 and PD-L1 (Homo sapiens, UniProt Q9NZQ7); assay: PD1-PDL1 HTRF binding activity test; settings: Cisbio PD-1/PD-L1 binding assay kit; percent inhibition vs DMSO
# T1 construct: purchased Cisbio 64ICP01PEG or 64ICP01PEH
# T1 sequence (Q9NZQ7 19-238 limits assumed): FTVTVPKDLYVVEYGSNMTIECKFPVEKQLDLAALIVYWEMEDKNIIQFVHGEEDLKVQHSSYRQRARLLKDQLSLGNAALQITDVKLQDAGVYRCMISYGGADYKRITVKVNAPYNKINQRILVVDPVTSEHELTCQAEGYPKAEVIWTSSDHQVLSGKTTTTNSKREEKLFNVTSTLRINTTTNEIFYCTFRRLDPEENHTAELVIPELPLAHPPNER
# Method: The effect of compounds of the examples of the present invention on the interaction between PD-1 and PD-L1 was determined by the PD-1/PD-L1 binding assay kit from Cisbio (#64ICP01PEG or 64ICP01PEH). The detailed experimental process was as follows:
# 1) Pre-diluted compound solution, 4 μL of Tag1-PD-L1 and 4 μL of Tag2-PD1 were added to each well of a 384-well plate;
# 2) After the mixture was incubated at room temperature for 15 min, 5 μL of anti-Tag1-Eu3+ antibody and 5 μL of anti-Tag2-XL665 antibody were then added;
# 3) After incubated for 2 hrs at room temperature or overnight at 4° C., plates were read on Envision of Perkin Elmer; and readings at 665 nm and 620 nm were recorded, and the ratio of the two readings was taken as a reading for each well;
# 4) The reading of each well after compound treatment was compared with the reading of DMSO treated wells to obtain the percent inhibition of the compound; and
# 5) IC50 values of compounds of the examples of the present invention were determined by non-linear regression analysis of percent inhibition at different compound concentrations.
# [2] = target: T2, interaction between PD-1 and PD-L1 expressed on cell surfaces (Jurkat/NF-κB-luc/PD1 cells cocultured with Raji-PD-L1 cells) (Homo sapiens, UniProt Q9NZQ7); assay: Jurkat reporter gene cellular assay; type: cell-based; settings: OKT3 1 μg/mL stimulation, 6 hrs, activation fold vs DMSO
# T2 construct: expressed in transfected cells; host or cells: Raji cells (PD-L1); Jurkat cells (PD-1, NF-κB-luc reporter)
# T2 sequence (Q9NZQ7 19-290): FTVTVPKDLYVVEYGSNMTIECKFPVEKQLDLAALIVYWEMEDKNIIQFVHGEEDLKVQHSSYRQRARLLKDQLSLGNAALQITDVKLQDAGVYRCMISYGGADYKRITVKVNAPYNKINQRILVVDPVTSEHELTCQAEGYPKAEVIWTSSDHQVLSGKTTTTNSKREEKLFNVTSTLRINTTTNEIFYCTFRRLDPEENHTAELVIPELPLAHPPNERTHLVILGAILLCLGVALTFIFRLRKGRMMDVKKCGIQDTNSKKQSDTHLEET
# Method: The effect of compounds of the examples of the present invention on the interaction between PD-1 and PD-L1 expressed on cell surfaces, and the related influence on T cell functions, were determined by a Jurkat reporter gene cellular assay.
# Briefly, the reporter gene plasmid of NF-κB-luc and the plasmid of human PD-1 were transfected into Jurkat cells to establish a stably transfected cell line capable of stably expressing both PD-1 and NF-κB-Luc reporter genes; the expression level of PD-1 on the cell surface was confirmed by flow cytometry; and the expression of the reporter gene was confirmed via the response of the reporter gene stimulated by OKT-3 and Raji cells.
# In addition, the plasmid of human PD-L1 was transfected into Raji cells to obtain a cell line capable of stably expressing PD-L1. Jurkat/NF-κB-luc/PD1 cells and Raji-PD-L1 cells were then cocultured and stimulated with OKT-3. On this basis, the compounds were added, and the enhancement of the signal pathway of T cell activation by the inhibitory effect of the compounds on the interaction between PD-1 and PD-L1 was evaluated by readings of reporter gene responses. The specific experimental process was as follows:
# 1) 30 μL of compound or antibody solution was added to each well of a white 96-well plate (Corning, 3610) at different diluted concentrations, and 10 μL of OKT3 (Biolegend, 317326) was then added (the final concentration of OKT3: 1 μg/mL);
# 2) 20 μL of Raji-PD-L1 cell suspension was added to each well with 5*10^4 cells for each well, and was incubated in an incubator for 20 min;
# 3) 20 μL of Jurkat/NF-Kb-luc/PD-1 cell suspension was added to each well with 5*10^4 cells for each well, and was well mixed, and 6 hrs later, Bright-glo (Promega, E2620) was applied and plates were read on Envision;
# 4) The reading of each well treated with the compound was compared with the reading of each well treated with DMSO to obtain the activation fold of the compound; and
# 5) EC50 values of compounds of the examples of the present invention were determined by non-linear regression analysis of activation folds at different compound concentrations.
Compound,pIC50 [1],pEC50 [2]
"Cc1c(NC(=O)c2cc(C3CC3)c(CNCCO)cn2)cccc1-c1cccc(NC(=O)c2cc(C3CC3)c(CN3CCCC[C@H]3C(=O)O)cn2)c1C [Example 1, (S)-1-((4-cyclopropyl-6-((3′-(4-cyclopropyl-5-(((2-hydroxyethyl)amino)methyl)picolinamido)-2,2′-dimethyl-[1,1′-biphenyl]-3-yl)carbamoyl)pyridin-3-yl)methyl)piperidine-2-carboxylic acid]",8.97,8.17
"CCOC(=O)[C@H](CO)NCc1cnc(C(=O)Nc2cccc(-c3cccc(NC(=O)c4cc(C5CC5)c(CN5CCCC[C@H]5C(=O)O)cn4)c3C)c2C)cc1C1CC1 [Example 31, (S)-1-((4-cyclopropyl-6-((3′-(4-cyclopropyl-5-((((S)-1-ethoxy-3-hydroxy-1-oxopropan-2-yl)amino)methyl)picolinamido)-2,2′-dimethyl-[1,1′-biphenyl]-3-yl)carbamoyl)pyridin-3-yl)methyl) piperidine-2-carboxylic acid]",8.59,7.37
"Cc1c(NC(=O)c2cc(C3CC3)c(CN3CCC[C@H]3CO)cn2)cccc1-c1cccc(NC(=O)c2cc(C3CC3)c(CN3CCCC[C@H]3C(=O)O)cn2)c1C [Example 27, (S)-1-((4-cyclopropyl-6-((3′-(4-cyclopropyl-5-(((S)-2-(hydroxymethyl)pyrolidin-1-yl)methyl)picolinamido)-2, 2′-dimethyl-[1,1′-biphenyl]-3-yl)carbamoyl)pyridin-3-yl)methyl)piperidine-2-carboxylic acid]",8.58,7.56
"Cc1c(NC(=O)c2cc(C3CC3)c(CN[C@H]3CCOC3)cn2)cccc1-c1cccc(NC(=O)c2cc(C3CC3)c(CN3CCCC[C@H]3C(=O)O)cn2)c1C [Example 25, (S)-1-((4-cyclopropyl-6-((3′-(4-cyclopropyl-5-((((S)-tetrahydrofuran-3-yl)amino)methyl)picolinamido)-2,2′-dimethyl-[1,1′-biphenyl]-3-yl)carbamoyl)pyridin-3-yl)methyl)piperidine-2-carboxylic acid]",9.04,8.06
"Cc1c(NC(=O)c2cc(C3CC3)c(CNCCO)cn2)cccc1-c1cccc(NC(=O)c2cc(C3CC3)c(CN[C@H](CO)C(=O)O)cn2)c1C [Example 35, ((4-cyclopropyl-6-((3′-(4-cyclopropyl-5-(((2-hydroxyethyl)amino)methyl)picolinamido)-2,2′-dimethyl-[1,1′-biphenyl]-3-yl)carbamoyl)pyridin-3-yl)methyl)-D-serine]",8.71,7.54

# Second part, the molecule after the results:
pIC50 [1],pEC50 [2],Compound
8.72,7.44,"Cc1c(NC(=O)c2cc(C3CC3)c(CN[C@@H](C)CO)cn2)cccc1-c1cccc(NC(=O)c2cc(C3CC3)c(CN[C@H](CO)C(=O)O)cn2)c1C [Example 39, ((4-cyclopropyl-6-((3′-(4-cyclopropyl-5-((((S)-1-hydroxypropan-2-yl)amino)methyl)picolinamido)-2,2′-dimethyl-[1,1′-biphenyl]-3-yl)carbamoyl)pyridin-3-yl)methyl)-D-serine]"
9.04,7.21,Cc1c(NC(=O)c2cc(C3CC3)c(CN[C@H](CO)C(=O)O)cn2)cccc1-c1cccc(NC(=O)c2cc(C3CC3)c(CN3CCC[C@H]3CO)cn2)c1C [Example 54]
8.77,7.41,"Cc1c(NC(=O)c2cc(C3CC3)c(CN[C@H]3CCC[C@@H]3O)cn2)cccc1-c1cccc(NC(=O)c2cc(C3CC3)c(CN[C@H](CO)C(=O)O)cn2)c1C [Example 40, ((4-cyclopropyl-6-((3′-(4-cyclopropyl-5-((((1S,2S)-2-hydroxycyclopentyl)amino)methyl)picolinamido)-2,2′-dimethyl-[1,1′-biphenyl]-3-yl)carbamoyl)pyridin-3-yl)methyl)-D-serine]"
8.25,6.58,"CCOC(=O)[C@H](CO)NCc1cnc(C(=O)Nc2cccc(-c3cccc(NC(=O)c4cc(C5CC5)c(CNCCO)cn4)c3C)c2C)cc1C1CC1 [Example 37-1, Ethyl ((4-cyclopropyl-6-((3′-(4-cyclopropyl-5-(((2-hydroxyethyl)amino)methyl)picolinamido)-2,2′-dimethyl-[1,1′-biphenyl]-3-yl)carbamoyl)pyridin-3-yl)methyl)-L-serinate]"
